Laboratory results taken from patent US8633335B2, “Retinoid prodrug compound” (Research Founation Itsuu Laboratory, priority 2007, dated 2014).

| melting point | SMILES |
| --- | --- |
| 226 to 227 °C | CC1(C)CCC(C)(C)c2cc(NC(=O)c3ccc(/C=C/C(=O)O)cc3)ccc21 [Example 24, 4-[(5,6,7,8-Tetrahydro-5,5,8,8-tetramethyl-2-naphthyl)carbamoyl]cinnamic acid] |
| 198 to 200 °C | C[C@H](OC(=O)c1ccc(C(=O)Nc2cc([Si](C)(C)C)cc([Si](C)(C)C)c2)cc1)C(=O)O |
| 185.5 to 186.5 °C | CC1(C)CCC(C)(C)c2cc(NC(=O)c3ccc(C=O)cc3)ccc21 [Example 23, 4-Formyl-N-(5,6,7,8-tetrahydro-5,5,8,8-tetramethyl-2-naphthyl)benzamide] |
